Like-named read-outs stand apart in the source and are kept apart here.
Assays:
Type in all cases: cell-based
[1] = biological target: glutamate-activated channels of the GRIN1/2A subtype stably transfected in HEK 293 cells (Homo sapiens (Human), UniProt Q05586+Q12879); assay: Automated patch-clamp system (QPatch HTX), percent potentiation at 1 μM; conditions: HEK293, 1 μM test compound, 300 μM NMDA with 8 μM glycine, HEK 293 GRIN1/2A, read-out: GluN2A PCA % potentiation at 1 μM
How it was run: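 Tetracycline-induced HEK 293 cells stably expressing human GRIN1/2A were whole-cell recorded on QPatch HTX in Mg-free bath solution at pH 7.4. Compound at 1.0 μM (0.1% DMSO) was co-applied with submaximal 300 μM NMDA plus 8 μM glycine, and percent potentiation was recorded.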

[2] = biological target: GluN2B glutamate receptors expressed in mammalian cells (Homo sapiens (Human), UniProt Q05586+Q13224); assay: Whole-cell patch clamp of mammalian cells (Ionworks Barracuda), positive allosteric modulation, GluN2B; conditions: for Emax: read-out: GluN2B PCA EMax (%)
How it was run: (§1)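 Ionworks Barracuda perforated-patch recordings, holding −70 mV, −40 mV during application; CsCl/CsF intracellular pH 7.2, HB-PS extracellular pH 7.4 with 5 mM CaCl2. 5 min pre-application of test article alone, then co-application with EC20 L-glutamate plus 30 μM glycine; potentiation read as peak current amplitude.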

[3] = biological target: GluN1/GluN2A glutamate receptors (human GRIN1/GRIN2A) expressed in HEK293 cells (Homo sapiens (Human), UniProt Q05586+Q12879); assay: Whole-cell patch clamp of mammalian cells (Ionworks Barracuda), positive allosteric modulation, GluN1/GluN2A; conditions: for Emax: read-out: GluN2A PCA EMax (%)
How it was run: as §1

[4] = peak current amplitude, co-application with EC20 L-glutamate and 30 μM glycine, read-out: GluN2B PCA EC50
[5] = peak current amplitude, co-application with EC20 L-glutamate and 30 μM glycine
[6] = peak current amplitude, co-application with EC20 L-glutamate and 30 μM glycine, HEK293
[7] = peak current amplitude, co-application with EC20 L-glutamate and 30 μM glycine, HEK293, read-out: GluN2A PCA EC50

Chain of GluN2B glutamate receptors expressed in mammalian cells (Q13224 27-1484, other chains not shown): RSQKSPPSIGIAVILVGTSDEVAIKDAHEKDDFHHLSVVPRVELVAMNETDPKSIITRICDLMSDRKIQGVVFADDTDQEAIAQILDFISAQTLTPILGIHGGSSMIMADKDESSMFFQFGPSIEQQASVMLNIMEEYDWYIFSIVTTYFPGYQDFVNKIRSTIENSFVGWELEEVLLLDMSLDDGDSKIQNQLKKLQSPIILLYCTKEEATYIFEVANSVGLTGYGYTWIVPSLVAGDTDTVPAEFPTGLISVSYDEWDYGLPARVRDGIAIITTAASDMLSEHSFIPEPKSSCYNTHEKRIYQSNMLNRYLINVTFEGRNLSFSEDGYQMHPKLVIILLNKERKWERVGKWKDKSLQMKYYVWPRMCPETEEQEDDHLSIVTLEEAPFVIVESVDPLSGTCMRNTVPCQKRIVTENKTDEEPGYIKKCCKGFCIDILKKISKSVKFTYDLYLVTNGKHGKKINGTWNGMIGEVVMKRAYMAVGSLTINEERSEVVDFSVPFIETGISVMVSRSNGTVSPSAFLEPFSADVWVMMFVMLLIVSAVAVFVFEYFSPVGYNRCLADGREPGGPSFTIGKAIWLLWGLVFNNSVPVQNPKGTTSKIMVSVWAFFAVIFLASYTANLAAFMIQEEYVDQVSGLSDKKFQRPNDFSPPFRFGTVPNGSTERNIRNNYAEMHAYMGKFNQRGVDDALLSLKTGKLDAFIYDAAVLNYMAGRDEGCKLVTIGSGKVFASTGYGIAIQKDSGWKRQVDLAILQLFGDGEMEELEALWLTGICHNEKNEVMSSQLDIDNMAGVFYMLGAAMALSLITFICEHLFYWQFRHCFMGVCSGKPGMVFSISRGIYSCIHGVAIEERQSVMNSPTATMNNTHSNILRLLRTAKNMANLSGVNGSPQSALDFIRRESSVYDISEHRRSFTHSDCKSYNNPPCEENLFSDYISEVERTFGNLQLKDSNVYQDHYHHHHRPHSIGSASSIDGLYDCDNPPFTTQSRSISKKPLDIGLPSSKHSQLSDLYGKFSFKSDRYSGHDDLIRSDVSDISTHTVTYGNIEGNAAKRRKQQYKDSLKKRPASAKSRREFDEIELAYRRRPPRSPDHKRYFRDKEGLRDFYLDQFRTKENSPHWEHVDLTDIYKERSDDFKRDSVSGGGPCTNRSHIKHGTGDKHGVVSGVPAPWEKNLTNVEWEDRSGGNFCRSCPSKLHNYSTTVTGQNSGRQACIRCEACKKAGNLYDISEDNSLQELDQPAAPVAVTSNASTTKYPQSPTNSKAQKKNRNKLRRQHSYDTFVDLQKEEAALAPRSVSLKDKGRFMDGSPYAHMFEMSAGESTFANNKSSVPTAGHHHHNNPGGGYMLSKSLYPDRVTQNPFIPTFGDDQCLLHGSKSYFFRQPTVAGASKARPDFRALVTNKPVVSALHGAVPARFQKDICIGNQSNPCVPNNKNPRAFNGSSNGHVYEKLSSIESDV
Chain of glutamate-activated channels of the GRIN1/2A subtype stably transfected in HEK 293 cells (Q12879 whole entry, looked up, other chains not shown): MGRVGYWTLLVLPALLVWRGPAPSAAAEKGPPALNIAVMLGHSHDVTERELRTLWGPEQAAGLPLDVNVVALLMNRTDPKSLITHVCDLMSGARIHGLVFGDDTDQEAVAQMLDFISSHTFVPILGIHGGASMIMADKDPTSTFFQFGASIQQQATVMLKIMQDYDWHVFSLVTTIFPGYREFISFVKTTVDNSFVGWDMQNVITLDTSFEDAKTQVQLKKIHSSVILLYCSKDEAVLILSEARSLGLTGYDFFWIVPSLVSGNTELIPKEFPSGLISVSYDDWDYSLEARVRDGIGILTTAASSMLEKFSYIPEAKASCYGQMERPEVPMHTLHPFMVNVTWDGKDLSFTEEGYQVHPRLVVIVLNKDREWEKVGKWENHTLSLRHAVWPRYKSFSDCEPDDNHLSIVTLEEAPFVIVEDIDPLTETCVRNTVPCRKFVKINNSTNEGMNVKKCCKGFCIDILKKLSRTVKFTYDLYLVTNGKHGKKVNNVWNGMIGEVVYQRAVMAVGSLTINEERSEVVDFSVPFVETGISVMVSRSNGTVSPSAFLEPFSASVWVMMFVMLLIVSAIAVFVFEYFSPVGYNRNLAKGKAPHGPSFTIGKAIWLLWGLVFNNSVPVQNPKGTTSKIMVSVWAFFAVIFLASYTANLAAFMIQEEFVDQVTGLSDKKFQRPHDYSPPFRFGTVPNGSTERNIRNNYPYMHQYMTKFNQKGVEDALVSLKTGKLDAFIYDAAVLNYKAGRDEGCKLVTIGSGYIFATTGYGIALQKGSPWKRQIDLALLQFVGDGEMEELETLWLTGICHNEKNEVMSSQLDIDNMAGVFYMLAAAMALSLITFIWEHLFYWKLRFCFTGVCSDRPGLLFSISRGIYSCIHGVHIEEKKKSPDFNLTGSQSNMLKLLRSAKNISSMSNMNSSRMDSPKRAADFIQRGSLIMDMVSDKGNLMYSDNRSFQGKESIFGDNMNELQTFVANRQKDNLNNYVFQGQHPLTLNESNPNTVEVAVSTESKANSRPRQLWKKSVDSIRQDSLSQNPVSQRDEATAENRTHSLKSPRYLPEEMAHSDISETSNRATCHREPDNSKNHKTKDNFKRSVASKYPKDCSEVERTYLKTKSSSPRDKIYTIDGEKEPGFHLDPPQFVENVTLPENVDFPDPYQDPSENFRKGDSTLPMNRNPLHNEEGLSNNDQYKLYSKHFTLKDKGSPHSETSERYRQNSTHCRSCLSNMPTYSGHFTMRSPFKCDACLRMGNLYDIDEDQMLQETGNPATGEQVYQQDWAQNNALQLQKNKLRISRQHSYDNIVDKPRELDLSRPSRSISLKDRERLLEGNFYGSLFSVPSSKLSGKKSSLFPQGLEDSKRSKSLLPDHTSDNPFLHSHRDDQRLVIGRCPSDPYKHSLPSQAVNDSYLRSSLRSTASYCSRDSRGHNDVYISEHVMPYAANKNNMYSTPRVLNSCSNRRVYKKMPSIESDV
Chain of GluN1/GluN2A glutamate receptors (human GRIN1/GRIN2A) expressed in HEK293 cells (Q12879 whole entry, looked up, other chains not shown): as above

| SMILES | activation at 1 µM [1] [%] | EC50 [2, 4] [nM] | Emax [2, 5] [%] | EC50 [3] [nM] | Emax [3, 6] [%] | EC50 [2] [nM] | Emax [2] [%] | EC50 [3, 7] [nM] |
| --- | --- | --- | --- | --- | --- | --- | --- | --- |
| CC[C@]1(O)CC[C@@]2(C)[C@@H](CC[C@@H]3[C@@H]2CC[C@]2(C)[C@@H]([C@H](C)[C@H](O)CC4CCCC4)CC[C@@H]32)C1 [Compound 84, (3S,5S,8R,9S,10S,13S,14S,17R)-17-((2S,3R)-4-cyclopentyl-3-hydroxybutan-2-yl)-3-ethyl-10,13-dimethylhexadecahydro-1H-cyclopenta[a]phenanthren-3-ol] | -10 to 10 | > 1000 | < 100 | > 1000 | < 100 |  |  |  |
| CC[C@]1(O)CC[C@@]2(C)[C@H](CC[C@@H]3[C@@H]2CC[C@]2(C)[C@@H]([C@H](C)[C@H](O)CC4CCC(C)(C)CC4)CC[C@@H]32)C1 [Compound 87, (3S,5R,8R,9S,10S,13S,14S,17R)-17-((2S,3R)-4-(4,4-dimethylcyclohexyl)-3-hydroxybutan-2-yl)-3-ethyl-10,13-dimethylhexadecahydro-1H-cyclopenta[a]phenanthren-3-ol] | -10 to 10 |  |  |  | < 100 | > 1000 | < 100 | > 1000 |
| CC[C@]1(O)CC[C@@]2(C)[C@H](CC[C@@H]3[C@@H]2CC[C@]2(C)[C@@H]([C@H](C)[C@@H](O)CC4CCCC4)CC[C@@H]32)C1 [Compound 94, (3S,5R,8R,9S,10S,13S,14S,17R)-17-((2S,3S)-4-cyclopentyl-3-hydroxybutan-2-yl)-3-ethyl-10,13-dimethylhexadecahydro-1H-cyclopenta[a]phenanthren-3-ol] | -40 to -10 | > 1000 | < 100 | > 1000 | < 100 |  |  |  |
| CC[C@]1(O)CC[C@@]2(C)[C@H](CC[C@@H]3[C@@H]2CC[C@]2(C)[C@@H]([C@H](C)[C@H](O)CCC(C)C)CC[C@@H]32)C1 [Compound 96, (3S,5R,8R,9S,10S,13S,14S,17R)-3-ethyl-17-((2S,3R)-3-hydroxy-6-methylheptan-2-yl)-10,13-dimethylhexadecahydro-1H-cyclopenta[a]phenanthren-3-ol] | -10 to 10 |  |  |  | < 100 | > 1000 | < 100 | 100 to 1000 |
| CC[C@]1(O)CC[C@@]2(C)[C@@H](CC[C@@H]3[C@@H]2CC[C@]2(C)[C@@H]([C@H](C)[C@@H](O)CC4CCCC4)CC[C@@H]32)C1 [Compound 98, (3S,5S,8R,9S,10S,13S,14S,17R)-17-((2S,3S)-4-cyclopentyl-3-hydroxybutan-2-yl)-3-ethyl-10,13-dimethylhexadecahydro-1H-cyclopenta[a]phenanthren-3-ol] | -40 to -10 | > 1000 | < 100 | > 1000 | < 100 |  |  |  |
| CC[C@]1(O)CC[C@@]2(C)C(=CC[C@H]3[C@@H]4CC[C@H]([C@H](C)[C@@H](O)CC5CCCC5)[C@@]4(C)CC[C@@H]32)C1 [Compound 100, (3S,8S,9S,10R,13S,14S,17R)-17-((2S,3S)-4-cyclopentyl-3-hydroxybutan-2-yl)-3-ethyl-10,13-dimethyl-2,3,4,7,8,9,10,11,12,13,14,15,16,17-tetradecahydro-1H-cyclopenta[a]phenanthren-3-ol] | -40 to -10 | > 1000 | < 100 | > 1000 | < 100 |  |  |  |
